What was measured:
[1] = system: Human immunodeficiency virus; test: Antiviral activity against HIV infected in human MT4 cells by XTT assay; type: functional, organism-based; conditions: Human immunodeficiency virus 1, MT4
Protease = Protease (Human immunodeficiency virus 1, UniProt Q9YQ12); test: Inhibition of HIV1 protease expressed in Escherichia coli using DABCYL-gamma-Abu-Ser-Gln-ASN-Tyr-Pro-Ile-Val-Gln-EDANS as substrate after 20 mins by fluorescence assay
[2] = Cytotoxicity against human MT4 cells after 5 days by XTT assay; type: cell-based
[3] = Apparent permeability from apical to basolateral side in human Caco2 cells at 10 uM after 60 mins; type: ADME, cell-based; conditions: Caco-2
[4] = Intrinsic clearance in human liver microsomes after 30 mins by LC-MS/MS analysis; type: ADME; conditions: read-out: CLH
[5] = Apparent permeability from apical to basolateral side in human Caco2 cells at 10 uM after 30 to 120 mins; type: ADME, cell-based; conditions: Caco-2
[6] = Intrinsic clearance in human liver microsomes at 2 uM after 10 to 30 mins by LC-MS/MS analysis; type: ADME; conditions: read-out: CLH
[7] = Intrinsic clearance in human liver microsomes after 0.5 to 30 mins by LC-MS/MS analysis; type: ADME; conditions: read-out: CLH
[8] = system: Human immunodeficiency virus 1; test: Antiviral activity against HIV1 RF infected in human MT2 cells after 4 to 7 days by ELISA; type: functional, organism-based; conditions: Human immunodeficiency virus 1, RF

Chain of Protease (Q9YQ12 whole entry): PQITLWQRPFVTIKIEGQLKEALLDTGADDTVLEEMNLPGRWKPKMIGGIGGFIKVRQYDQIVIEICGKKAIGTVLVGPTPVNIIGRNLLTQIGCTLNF

| SMILES | EC50 [1] | Ki (Protease) | CC50 at 120 h [2] | Papp A→B at 1 h, 10 µM [3] | microsomal CLint [4] | Papp A→B at 10 µM [5] | microsomal CLint at 2 µM [6] | microsomal CLint [7] | EC50 [8] |
| --- | --- | --- | --- | --- | --- | --- | --- | --- | --- |
| COC(=O)N[C@H](C(=O)NN(CCC[C@@](O)(Cc1ccccc1)C(=O)N[C@H]1c2ccccc2C[C@H]1O)Cc1ccc(-c2ccncc2)cc1)C(C)(C)C | 170 nM |  |  |  |  |  |  |  |  |
| CNC(=O)[C@@H](NC(=O)[C@@](O)(CCCN(Cc1ccc(Br)cc1)NC(=O)[C@@H](NC(=O)OC)C(C)(C)C)Cc1ccccc1)C(C)C |  | 2.7 nM | > 10000 nM |  |  |  |  |  |  |
| CNC(=O)[C@@H](NC(=O)[C@@](O)(CCCN(Cc1ccc(Br)cc1)NC(=O)[C@@H](NC(=O)OC)C(C)(C)C)Cc1ccccc1)C(C)(C)C | 2000 nM | 6.2 nM | > 10000 nM | 4.6 ×10⁻⁶ cm/s | 180 µL/min/mg |  |  |  |  |
| CNC(=O)[C@@H](NC(=O)[C@](O)(CCCN(Cc1ccc(Br)cc1)NC(=O)[C@@H](NC(=O)OC)C(C)(C)C)Cc1ccccc1)C(C)(C)C | > 10000 nM | > 5000 nM | > 10000 nM |  |  |  |  |  |  |
| CNC(=O)[C@H](CC(C)C)NC(=O)[C@@](O)(CCCN(Cc1ccc(Br)cc1)NC(=O)[C@@H](NC(=O)OC)C(C)(C)C)Cc1ccccc1 | > 10000 nM | 65 nM | > 10000 nM |  |  |  |  |  |  |
| CNC(=O)[C@H](C)NC(=O)[C@@](O)(CCCN(Cc1ccc(Br)cc1)NC(=O)[C@@H](NC(=O)OC)C(C)(C)C)Cc1ccccc1 | 2600 nM | 18 nM | > 10000 nM |  |  |  |  |  |  |
| CNC(=O)[C@H](Cc1ccccc1)NC(=O)[C@@](O)(CCCN(Cc1ccc(Br)cc1)NC(=O)[C@@H](NC(=O)OC)C(C)(C)C)Cc1ccccc1 | 8200 nM | 170 nM | > 10000 nM |  |  |  |  |  |  |
| COC(=O)N[C@H](C(=O)NN(CCC[C@@](O)(Cc1ccccc1)C(=O)N[C@H](CO)C(C)(C)C)Cc1ccc(Br)cc1)C(C)(C)C | > 10000 nM | 130 nM | > 10000 nM |  |  |  |  |  |  |
| CNC(=O)[C@@H](NC(=O)[C@@](CCCN(Cc1ccc(Br)cc1)NC(=O)[C@@H](NC(=O)OC)C(C)(C)C)(Cc1ccccc1)O[Si](C)(C)C(C)(C)C)C(C)(C)C | > 10000 nM | 2700 nM | > 10000 nM |  |  |  |  |  |  |
| CNC(=O)[C@@H](NC(=O)[C@@](O)(CCCN(Cc1ccc(-c2ccccc2)cc1)NC(=O)[C@@H](NC(=O)OC)C(C)(C)C)Cc1ccccc1)C(C)(C)C | 1000 nM | 4.6 nM | > 50000 nM | 21 ×10⁻⁶ cm/s | > 300 µL/min/mg |  |  |  |  |
| CNC(=O)[C@@H](NC(=O)[C@@](O)(CCCN(Cc1ccc(-c2cccnc2)cc1)NC(=O)[C@@H](NC(=O)OC)C(C)(C)C)Cc1ccccc1)C(C)(C)C | 1000 nM | 3.1 nM | > 50000 nM | < 1 ×10⁻⁶ cm/s | 63 µL/min/mg |  |  |  |  |
| CNC(=O)[C@@H](NC(=O)[C@@](O)(CCCN(Cc1ccc(-c2ccncc2)cc1)NC(=O)[C@@H](NC(=O)OC)C(C)(C)C)Cc1ccccc1)C(C)(C)C | 1100 nM | 3.5 nM | > 50000 nM | 1.9 ×10⁻⁶ cm/s | 20 µL/min/mg |  |  |  |  |
| CNC(=O)[C@@H](NC(=O)[C@@](O)(CCCN(Cc1ccc(-c2ccsc2)cc1)NC(=O)[C@@H](NC(=O)OC)C(C)(C)C)Cc1ccccc1)C(C)(C)C | 1000 nM | 3.6 nM | > 50000 nM |  |  |  |  |  |  |
| CNC(=O)[C@@H](NC(=O)[C@@](O)(CCCN(Cc1ccc(-c2ccc3c(c2)OCO3)cc1)NC(=O)[C@@H](NC(=O)OC)C(C)(C)C)Cc1ccccc1)C(C)(C)C | 1200 nM | 4.8 nM | > 50000 nM |  |  |  |  |  |  |
| CNC(=O)[C@@H](NC(=O)[C@@](O)(CCCN(Cc1ccc(C#Cc2ccccn2)cc1)NC(=O)[C@@H](NC(=O)OC)C(C)(C)C)Cc1ccccc1)C(C)(C)C | 1200 nM | 7 nM | > 50000 nM |  |  |  |  |  |  |
| CNC(=O)[C@@H](NC(=O)[C@@](O)(CCCN(Cc1ccc(C#Cc2cccnc2)cc1)NC(=O)[C@@H](NC(=O)OC)C(C)(C)C)Cc1ccccc1)C(C)(C)C | 2100 nM | 3.4 nM | > 50000 nM | 6.1 ×10⁻⁶ cm/s | > 300 µL/min/mg |  |  |  |  |
| CNC(=O)[C@@H](NC(=O)[C@@](O)(CCCN(Cc1ccc(C#Cc2ccncc2)cc1)NC(=O)[C@@H](NC(=O)OC)C(C)(C)C)Cc1ccccc1)C(C)(C)C | 8900 nM | 6.6 nM | > 50000 nM |  |  |  |  |  |  |
| CNC(=O)[C@@H](NC(=O)[C@@](O)(CCCN(Cc1ccc(-c2ccccn2)cc1)NC(=O)[C@@H](NC(=O)OC)C(C)(C)C)Cc1ccccc1)C(C)(C)C | 4900 nM | 6.3 nM | > 50000 nM |  |  |  |  |  |  |
| CNC(=O)[C@@H](NC(=O)[C@@](O)(CCCN(Cc1ccc(-c2nccs2)cc1)NC(=O)[C@@H](NC(=O)OC)C(C)(C)C)Cc1ccccc1)C(C)(C)C | 3700 nM | 3.5 nM | > 50000 nM |  |  |  |  |  |  |
| COC(=O)N[C@H](C(=O)N[C@@H](Cc1ccccc1)[C@@H](O)CN(Cc1ccc(-c2ccccn2)cc1)NC(=O)[C@@H](NC(=O)OC)C(C)(C)C)C(C)(C)C [ATAZANAVIR] |  |  |  |  |  | 5.3 ×10⁻⁶ cm/s | 90 µL/min/mg | 140 µL/min/mg | 3.9 nM |

Reference: ChEMBL document CHEMBL3217614, “HIV-1 protease inhibitors with a tertiary alcohol containing transition-state mimic and various P2 and P1 substituents” (Medchemcomm, 2011)
